The text below walks through data of US8278338B2 (priority 2004, dated 2012).

Read-outs that look alike come from different tables or passages of the source.

The target in one test is T1, human μ-opiate receptor (Homo sapiens, UniProt P35372).
T1 construct: purchased Perkin Elmer, Zaventem, Belgium RB-HOM; host or cells: CHO-K1 cells
The experiment in a line: Affinity for the human μ-opiate receptor, [3H]-naloxone displacement (SPA) on CHO-K1 receptor membrane preparation. Format: binding. As to conditions: for μ-Opioid receptor affinity (% inhibition at 1 μmol./l): 1 μmol./l test substance; for μ-Opioid receptor affinity (% inhibition at 1 μmol./l) / inhibition at 1 µM: inhibition of specific [3H]-naloxone binding; for inhibition at 1 µM: 1.5 h, read-out: μ-Opioid receptor affinity (% inhibition at 1 μmol./l), 1 μmol./l test substance. How it is done: The receptor affinity for the human μ-opiate receptor was determined in a homogeneous batch on microtitre plates. To that end, serial dilutions of the substances to be tested were incubated for 90 minutes at room temperature with a receptor membrane preparation (15-40 μg of protein/250 μl of incubation batch) of CHO-K1 cells, which express the human μ-opiate receptor (RB-HOM receptor membrane preparation from Perkin Elmer, Zaventem, Belgium), in the presence of 1 nmol./l of the radioactive ligand [^3H]-naloxone (NET719, Perkin Elmer, Zaventem, Belgium) and 1 mg of WGA-SPA beads (wheatgerm agglutinin SPA beads from Amersham/Pharmacia, Freiburg, Germany) in a total volume of 250 μl. The incubation buffer used was 50 mmol./l of Tris-HCl supplemented with 50 μM MgCl2 and 0.05% bovine serum albumin. In order to determine non-specific binding, 100 μmol./l of naloxone were additionally added. When the ninety-minute incubation time was complete, the microtitre plates were centrifuged off for 20 minutes at 1000 g and the radioactivity was measured in a β-counter (Microbeta-Trilux, PerkinElmer, Freiburg, Germany). The percentage displacement of the radioactive ligand from its binding to the human μ-opiate receptor at a concentration of the test substances of 1 μmol./l was determined and stated as the percentage inhibition of specific binding. […] Ki values for the test substances were obtained by conversion by means of the Cheng-Prusoff equation (Cheng and Prusoff 1973).

A further test concerns the target 5-HT reuptake (Rattus norvegicus, UniProt P31652). Briefly: biochemical. The following applies: rat synaptosomes; for inhibition at 10 µM: read-out: Inhibition of 5-HT reuptake (% inhibition at 10 μmol./l), 10 μmol./l; for Ki: Cheng-Prusoff. An excerpt:
In order to be able to carry out these in vitro studies, synaptosomes were freshly isolated from areas of rat brain. […] For NA reuptake, these vesicular particles were isolated from the hypothalamus of male rat brains, and for 5HT reuptake, they were isolated from the medulla+pons region.
The IC50 values were obtained with the aid of the “Figure P” computer program (Version 6.0, Biosoft, Cambridge, England). […] The “Ligand” computer program (Version 4, Biosoft, England) was used to show KD values.

Another test addresses T2, NA reuptake (Rattus norvegicus, UniProt Q63380).
T2 construct: isolated from the hypothalamus of male rat brains; from tissue; host or cells: rat brain synaptosomes (P2 fraction), hypothalamus of male rats
The experiment in a line: Inhibition of NA reuptake in rat brain synaptosomes (hypothalamus, P2 fraction). The class given is biochemical. The following applies: for inhibition at 10 µM: 10 μmol./l. How it is done: In order to be able to carry out these in vitro studies, synaptosomes were freshly isolated from areas of rat brain. A so-called “P2” fraction was used in each case, which was prepared exactly according to the procedure of Gray, E. G. and Whittaker, V. P. (1962, J. Anat. […], 79-88). For NA reuptake, these vesicular particles were isolated from the hypothalamus of male rat brains, and for 5HT reuptake, they were isolated from the medulla+pons region.
IC50 values were obtained thereby which can be converted into inhibitor constants (Ki) according to the “Cheng-Prusoff equation” (Cheng, Y. C. and Prusoff, W. H., 1973, Biochem. Pharmacol. 22, 3099-3108). The IC50 values were obtained with the aid of the “Figure P” computer program (Version 6.0, Biosoft, Cambridge, England). Km values were calculated according to Lineweaver, H. and Burk, D. (1934, J. Am. Chem. Soc. 56, 658-666). The “Ligand” computer program (Version 4, Biosoft, England) was used to show KD values.

The test system of a further test is rat. The experiment in a line: Formalin test in the rat (phase 2, chronic pain component). The class given is in vivo. How it is done:
(§1) The formalin test (Dubuisson, D. and Dennis, S. G., 1977, Pain, 4, 161-174) represents a model for acute and chronic pain. By means of a single formalin injection into the dorsal side of a rear paw, a biphase nociceptive reaction was induced in freely mobile test animals; the reaction was assessed by observing three behaviour patterns which are clearly distinguishable from one another. The reaction is two-phase: phase 1=immediate reaction (duration up to 10 minutes; shaking of the paw, licking), phase 2=late reaction (after a rest phase; likewise shaking of the paw, licking; duration up to 60 minutes). The first phase reflects a direct stimulation of the peripheral nocisensors with a high spinal nociceptive input or glutamate release (acute pain phase); the second phase reflects a spinal and peripheral hypersensitisation (chronic pain phase). In the studies presented here, the chronic pain component (phase 2) was evaluated.
Formalin was administered subcutaneously in a volume of 50 μl and a concentration of 5% into the dorsal side of the right rear paw of each animal. The specific behavioural changes, such as lifting and shaking of the paw, weight shifting of the animal and biting and licking reactions, were observed and recorded over an observation period of from 21 to 27 minutes after the formalin injection. The various behaviours were combined to give the so-called pain rate (PR) which, based on 3-minute intervals, represents the calculation of a mean nociceptive reaction. The PR was calculated on the basis of a numerical weighting (=in each case factor 1, 2, 3) of the observed behaviours (corresponding to behaviour score 1, 2, 3) and was calculated using the following formula:
The size of the group was 10 animals (n=10).
(§2) On the basis of the PR calculations, the activity of the substance was determined in percent as the change relative to a control. The ED50 was determined by means of regression analysis.

The next test concerns mouse. Briefly: Formalin test in the mouse (phase 2, chronic pain component). The class given is in vivo. As to conditions: for ED50: iv, read-out: Inhibition of the nociceptive behaviour versus control, ED50 value. As to the method:
as §1
Formalin was administered subcutaneously in a volume of 20 μl and a concentration of 1% into the dorsal side of the right rear paw of each animal. The specific behavioural changes, such as lifting and shaking of the paw (score 3), were observed and recorded over an observation period of from 21 to 24 minutes after the formalin injection. The size of the group was 10 animals (n=10).
as §2

The mark [1] stands for this setting: Cheng-Prusoff from IC50, [3H]-naloxone 1 nmol./l, read-out: μ-Opioid receptor affinity, Ki.
[2] abbreviates: 21.5 mg/kg i.v., phase 2, 21.5 mg/kg.

Sequence of 5-HT reuptake (P31652 whole entry): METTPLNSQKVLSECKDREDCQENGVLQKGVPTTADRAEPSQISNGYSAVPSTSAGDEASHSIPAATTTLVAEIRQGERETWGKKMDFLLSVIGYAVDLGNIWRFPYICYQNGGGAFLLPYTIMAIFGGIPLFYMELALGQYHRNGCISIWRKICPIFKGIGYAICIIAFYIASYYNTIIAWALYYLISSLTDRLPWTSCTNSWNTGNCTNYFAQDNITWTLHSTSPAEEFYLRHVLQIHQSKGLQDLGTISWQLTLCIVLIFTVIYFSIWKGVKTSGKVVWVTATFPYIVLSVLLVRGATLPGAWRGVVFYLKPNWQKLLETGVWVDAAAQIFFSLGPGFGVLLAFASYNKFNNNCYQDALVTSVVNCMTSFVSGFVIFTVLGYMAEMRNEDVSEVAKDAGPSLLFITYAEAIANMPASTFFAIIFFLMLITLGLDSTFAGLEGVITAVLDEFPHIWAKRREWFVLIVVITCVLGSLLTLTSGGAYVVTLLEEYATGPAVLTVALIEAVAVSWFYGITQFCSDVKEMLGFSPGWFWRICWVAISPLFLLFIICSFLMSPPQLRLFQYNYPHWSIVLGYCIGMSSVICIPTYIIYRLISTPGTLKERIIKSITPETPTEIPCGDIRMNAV
T2 sequence (Q63380 1-617): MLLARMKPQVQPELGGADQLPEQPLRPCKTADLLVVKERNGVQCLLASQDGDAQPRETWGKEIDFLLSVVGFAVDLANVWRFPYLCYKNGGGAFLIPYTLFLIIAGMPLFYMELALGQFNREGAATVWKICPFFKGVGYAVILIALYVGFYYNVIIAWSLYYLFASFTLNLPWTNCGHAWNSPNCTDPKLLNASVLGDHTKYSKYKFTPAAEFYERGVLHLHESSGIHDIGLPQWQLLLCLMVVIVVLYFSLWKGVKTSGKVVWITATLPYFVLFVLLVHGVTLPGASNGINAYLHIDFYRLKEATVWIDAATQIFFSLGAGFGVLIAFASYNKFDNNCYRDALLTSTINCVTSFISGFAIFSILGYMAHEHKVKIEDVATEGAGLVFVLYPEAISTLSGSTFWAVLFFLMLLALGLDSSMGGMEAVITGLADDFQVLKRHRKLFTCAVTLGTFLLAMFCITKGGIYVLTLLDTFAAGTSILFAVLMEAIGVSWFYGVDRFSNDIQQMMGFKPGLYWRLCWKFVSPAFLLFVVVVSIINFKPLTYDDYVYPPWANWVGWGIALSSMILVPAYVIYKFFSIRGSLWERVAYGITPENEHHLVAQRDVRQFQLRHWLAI
T1 sequence (P35372 whole entry): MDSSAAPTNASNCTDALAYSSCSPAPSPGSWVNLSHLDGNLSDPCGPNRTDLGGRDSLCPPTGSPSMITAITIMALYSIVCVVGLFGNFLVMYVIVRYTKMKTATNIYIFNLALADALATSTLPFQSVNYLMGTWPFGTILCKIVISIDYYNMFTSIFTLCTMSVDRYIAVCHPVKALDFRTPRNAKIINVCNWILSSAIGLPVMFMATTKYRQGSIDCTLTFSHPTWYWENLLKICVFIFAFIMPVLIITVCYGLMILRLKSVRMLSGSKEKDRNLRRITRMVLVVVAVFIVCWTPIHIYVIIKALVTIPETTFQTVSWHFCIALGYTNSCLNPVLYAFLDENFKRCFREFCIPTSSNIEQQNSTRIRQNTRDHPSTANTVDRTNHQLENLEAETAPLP

Consider `CN(C)CC1=C(c2cccnc2)c2ccccc2SCC1` [Example 15, dimethyl-(5-pyridin-3-yl-2,3-dihydro-benzo[b]thiepin-4-ylmethyl)-amine], for which the Ki on human μ-opiate receptor (setting [1]) was 320 nM. Also, the results for the inhibition at 10 µM at 5-HT reuptake and at NA reuptake were 60% and 36%, respectively. Further, the “Inhibition of the nociceptive behaviour versus control (% inhibition)” value (“Inhibition … (% inhibition)” for short) in the test on rat (10 mg/kg i.v., phase 2) is given as −70.7%.
With `CN(C)CC1Cc2ccccc2C1(O)c1cccnc1` (single isomer, unassigned) [Example 2, 2-dimethylaminomethyl-1-pyridin-3-yl-indan-1-ol], the “μ-Opioid receptor affinity (% inhibition at 1 μmol./l)” value at human μ-opiate receptor was 60%. On 5-HT reuptake, the “Inhibition of 5-HT reuptake (% inhibition at 10 μmol./l)” value came out at 89%. The “Inhibition of NA reuptake (% inhibition at 10 μmol./l)” value on NA reuptake is 43%. Moreover, in the test with rat (46.4 mg/kg i.v., phase 2), the “Inhibition … (% inhibition)” value was −80.6%.
Take `CN(C)CC1CCSc2ccccc2C1(O)c1cccnc1` (stereo not drawn) [Example 13, 4-dimethylaminomethyl-5-pyridin-3-yl-2,3,4,5-tetrahydro-benzo[b]thiepin-5-ol]: the “μ-Opioid receptor affinity (% inhibition at 1 μmol./l)” value at human μ-opiate receptor was −23%. Moreover, the inhibition at 10 µM on 5-HT reuptake stood at 41%; against NA reuptake, 45%. For the same molecule, in the test with rat (setting [2]), the “Inhibition … (% inhibition)” value is recorded as −53.6%.
Consider `COc1ccc2c(c1)CC(CN(C)C)=C2c1cccnc1` [Example 6, (6-methoxy-3-pyridin-3-yl-1H-inden-2-ylmethyl)-dimethyl-amine], for which the Ki on human μ-opiate receptor worked out at 150 nM; at 5-HT reuptake, 28 nM. In addition, at NA reuptake, the inhibition at 10 µM came to 31%. Further, the ED50 in the test on mouse (phase 2, regression analysis) came to 1.64 mg/kg.
Take `CN(C)CC1=C(c2cccnc2)c2ccccc2CC1` [Example 9, dimethyl-(1-pyridin-3-yl-3,4-dihydro-naphthalen-2-ylmethyl)-amine]: at human μ-opiate receptor (setting [1]), the Ki stood at 560 nM. Also, the results for the inhibition at 10 µM on 5-HT reuptake and on NA reuptake were 56% and 26%, respectively. Also, the “Inhibition … (% inhibition)” value in the test with rat (10 mg/kg i.v., phase 2) was −97.0%.
As for `CN(C)CC1CCSc2ccccc2C1(O)c1cccnc1` (stereo not drawn) [Example 14, 4-dimethylaminomethyl-5-pyridin-3-yl-2,3,4,5-tetrahydro-benzo[b]thiepin-5-ol], the “μ-Opioid receptor affinity (% inhibition at 1 μmol./l)” value at human μ-opiate receptor is listed as −14%. In addition, at 5-HT reuptake, the “Inhibition of 5-HT reuptake (% inhibition at 10 μmol./l)” value is 44%. The “Inhibition of NA reuptake (% inhibition at 10 μmol./l)” value at NA reuptake worked out at 54%. The “Inhibition … (% inhibition)” value with rat (setting [2]) is reported as −53.2%.
Take `CN(C)CC1=C(c2cccnc2)c2ccccc2C1` [Example 3, dimethyl-(3-pyridin-3-yl-1H-inden-2-ylmethyl)-amine]: the figures for the Ki at human μ-opiate receptor and on 5-HT reuptake were 240 nM and 13 nM, respectively. This molecule registered an inhibition at 10 µM against NA reuptake of 30%. Besides, the ED50 in the test on mouse (phase 2, regression analysis) was found to be 3.32 mg/kg.
With `CN(C)CC1Cc2ccccc2C1c1cccnc1` (stereo not drawn) [Example 4, dimethyl-(1-pyridin-3-yl-indan-2-ylmethyl)-amine], on human μ-opiate receptor, the inhibition at 1 µM is 31%. Also, the inhibition at 10 µM on 5-HT reuptake was found to be 86%; at NA reuptake, 46%. Moreover, in the test on rat (4.64 mg/kg i.v., phase 2), the “Inhibition … (% inhibition)” value is −61.60%.
As for `COc1ccc(C(CN(C)C)C2(O)CCCCC2)cc1` (stereo not drawn) [Venlafaxin, venlafaxin, reference compound], the “μ-Opioid receptor affinity (% inhibition at 1 μmol./l)” value on human μ-opiate receptor is listed as −1%. Further, the “Inhibition of the nociceptive behaviour versus control, ED50 value” in the test on mouse (i.v., phase 2, regression analysis) came out at 2.60 mg/kg.
Turning to `COc1ccc2c(c1)CC(CN(C)C)C2(O)c1cccnc1` (stereo not drawn) [Example 5, 2-dimethylaminomethyl-5-methoxy-1-pyridin-3-yl-indan-1-ol], the inhibition at 1 µM on human μ-opiate receptor is 49%. Besides, the Ki on 5-HT reuptake came to 170 nM. The molecule also displayed an inhibition at 10 µM against NA reuptake of 29%. Also, the “Inhibition … (% inhibition)” value with rat (21.5 mg/kg i.v., phase 2) is recorded as −43.0%.
`CN(C)CC1=C(c2cccnc2)c2ccccc2CCC1` [Example 12, dimethyl-(5-pyridin-3-yl-8,9-dihydro-7H-benzocyclohepten-6-ylmethyl)-amine]: the Ki turned out to be 380 nM at human μ-opiate receptor (setting [1]) and 120 nM on 5-HT reuptake. For the same molecule, the inhibition at 10 µM against NA reuptake worked out at 20%. The “Inhibition … (% inhibition)” value with mouse (14.7 mg/kg i.v., phase 2) is on record as −45.8%.

For orientation: Ki means the equilibrium dissociation constant of an inhibitor or competing ligand from its target. What is called ED50 is the dose that gives a 50% effect, or the effect in half of the subjects.
